{
  "source": "paper PMC5719402",
  "about": "“Protein-Structure Assisted Optimization of 4,5-Dihydroxypyrimidine-6-Carboxamide Inhibitors of Influenza Virus Endonuclease” (Scientific Reports, 2017)",
  "biological_target": "wild type PAN ΔLoop protein (Influenza A virus, UniProt C3W5S0, DEL51-57/DEL61-72/E59G)",
  "format": "biochemical, influenza A/California/04/2009 H1N1",
  "settings": "read-out: FRET IC50",
  "data": [
    {"compound": "O=C(O)C(=O)CC(=O)c1ccccc1", "note": "[DPBA, reference compound]", "values": [
      {"measurement": "IC50", "value": "98 ± 3", "unit": "nM"}
    ]}
  ]
}
